The results in this text go back to patent US7595401B2, “Therapeutic compounds and their use in cancer” (Myriad Pharmaceuticals, Inc., priority 2006, dated 2009).

The term % Inhibition denotes the relative decrease from the control value, in per cent. A lower % Inhibition goes with a response near the control. What is called IC50 is the midpoint of a concentration-inhibition curve. A lower IC50 goes with greater potency in that assay.

One assay concerns purified human Hsp90. Briefly: Binding Assay: fluorescence polarization with BODIPY-labeled geldanamycin. The note with it: 5 μM compound, BODIPY-GM 10 nM, Hsp90 30 nM. In outline: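 Fluorescence polarization competition with BODIPY-geldanamycin (10 nM final) and human Hsp90 (30 nM final) in HEPES-KOH pH 7.3 buffer with molybdate, NP-40, DTT; 2% DMSO, overnight at room temperature. Read 485/530 nm; percent inhibition from mP normalized to DMSO controls, fluorescent-compound points excluded.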
For orientation: Polarisation of emitted light reports the rotation of a fluorescent probe.
Regarding `CS(=O)(=O)N1CCCCC1CCn1cnc(N)c2nc(Sc3cc4c(cc3Br)OCO4)nc1-2` (stereo not shown) [Example 373, 8-[(6-Bromo-1,3-benzodioxol-5-yl)thio]-3-{2-[1-(methylsulfonyl)piperidin-2-yl]ethyl}-3H-purin-6-amine], the “% Inhibition at 5 μM Compound Concentration” value (from here on “% Inhibition”) was determined as 15%.
In the case of `CC(C)(C)OC(=O)N1CCCC[C@H]1CCn1cnc(N)c2nc(Sc3cc4c(cc3Br)OCO4)nc1-2` [Example 417, tert-Butyl (2S)-2-(2-{6-amino-8-[(6-bromo-1,3-benzodioxol-5-yl)thio]-3H-purin-3-yl}ethyl)piperidine-1-carboxylate], the “% Inhibition” value is recorded as 0%.
On the same count and under the same terms, as for `COc1ccc(OC)c(Sc2nc3c(N)ncn(CCc4ccccc4F)c-3n2)c1` [Example 30, 8-(2,5-dimethoxy-phenylsulfanyl)-3-[2-(2-fluoro-phenyl)-ethyl]-3H-purin-6-ylamine], the figure is 16%; as for `COc1ccc(OC)c(Sc2nc3c(N)ncnc3n2Cc2ccc([N+](=O)[O-])cc2)c1` [Example 84, 8-(2,5-Dimethoxy-phenylsulfanyl)-9-(4-nitro-benzyl)-9H-purin-6-ylamine], 0%.
Turning to `CC(C)(C)OC(=O)N1CC[C@H](CCn2cnc(N)c3nc(Sc4cc5c(cc4Br)OCO5)nc2-3)C1` [Example 420, tert-Butyl (3S)-3-(2-{6-amino-8-[(6-bromo-1,3-benzodioxol-5-yl)thio]-3 H-purin-3-yl}ethyl)pyrrolidine-1-carboxylate], the “% Inhibition” value is 7%.
For the molecule `CCCCNC(=O)Nc1ccc(CCn2cnc(N)c3nc(Sc4cc(OC)ccc4OC)nc2-3)cc1` [Example 278, N-[4-(2-{6-Amino-8-[(2,5-dimethoxyphenyl)thio]-3H-purin-3-yl}ethyl)phenyl]-N′-butylurea], the “% Inhibition” value was 1.0%.
On to `Nc1ncn(CCC23CC4CC(CC(C4)C2)C3)c2nc(Sc3cc4c(cc3Br)OCO4)nc1-2` [Example 357, 3-[2-(1-Adamantyl)ethyl]-8-[(6-bromo-1,3-benzodioxol-5-yl)thio]-3H-purin-6-amine], for which the “% Inhibition” value amounted to 0%.
As for `CCOC(=O)CNC(=O)N1CCC(CCn2cnc(N)c3nc(Sc4cc5c(cc4Br)OCO5)nc2-3)CC1` [Example 443, Ethyl N-{[4-(2-{6-amino-8-[(6-bromo-1,3-benzodioxol-5-yl)thio]-3H-purin-3-yl}ethyl)piperidin-1-yl]carbonyl}glycinate], the “% Inhibition” value was found to be 36%.
In the case of `Nc1ncn(CCC2CCCCN2S(=O)(=O)C(F)(F)F)c2nc(Sc3cc4c(cc3Br)OCO4)nc1-2` (stereo not shown) [Example 397, 8-[(6-Bromo-1,3-benzodioxol-5-yl)thio]-3-(2-{1-[(trifluoromethyl)sulfonyl]piperidin 2-yl}ethyl)-3H-purin-6-amine], the “% Inhibition” value came to 1%.
For `COc1ccc(OC)c(Sc2nc3c(N)ncnc3n2CCc2ccc3c(c2)OCO3)c1` [Example 167, 9-(2-Benzo[1,3]dioxol-5-yl-ethyl)-8-(2,5-dimethoxy-phenylsulfanyl)-9H-purin-6-ylamine], the “% Inhibition” value was determined as 44%.
In the case of `CC(C)(C)OC(=O)NC(CCn1cnc(N)c2nc(Sc3cc4c(cc3Br)OCO4)nc1-2)C1CCOCC1` (stereo not shown) [Example 683, [3-[6-Amino-8-(6-bromo-benzo[1,3]dioxol-5-ylsulfanyl)-9H-purin-3-yl]-1-(tetrahydro-pyran-4-yl)-propyl]-carbamic acid tert-butyl ester], the “% Inhibition” value amounted to 5%.
The same measure, in the same setting: the result for `Nc1ncn(CCC2CCN(C(=O)C3(C(F)(F)F)CC3)CC2)c2nc(Sc3cc4c(cc3Br)OCO4)nc1-2` [Example 527] reads 19.00%; that for `COc1ccc(OC)c(Sc2nc3c(N)ncn(CCc4ccccc4Br)c-3n2)c1` [Example 142, 3-[2-(2-bromo-phenyl)-ethyl]-8-(2,5-dimethoxy-phenylsulfanyl)-3H-purin-6-ylamine], 0%.
For `COc1cc(Sc2nc3c(N)nc[n+](CCC4CCN(C=O)CC4)c3[nH]2)cc(OC)c1OC` [Example 541, 4-(2-{6-Amino-8-[(3,4,5-trimethoxyphenyl)thio]-3 H-purin-3-yl}ethyl)piperidine-1-carbaldehyde], the “% Inhibition” value worked out at 4.00%.
With `COc1ccc(OC)c(Sc2nc3c(N)ncn(CCC4CCN(C=O)CC4)c-3n2)c1` [Example 359, 4-(2-{6-Amino-8-[(2,5-dimethoxyphenyl)thio]-3H-purin-3-yl}ethyl)piperidine-1-carbaldehyde], the “% Inhibition” value was found to be 3%.
Consider `COc1ccc(I)c(Sc2nc3c(N)ncn(CCc4ccc(I)cc4)c-3n2)c1` [Example 311, 8-[(2-Iodo-5-methoxyphenyl)thio]-3-[2-(4-iodophenyl)ethyl]-3H-purin-6-amine], for which the “% Inhibition” value is reported as 0.0%.
In the case of `COc1ccc(OC)c(Sc2nc3c(N)ncn(CCc4ccc(Br)cc4)c-3n2)c1` [Example 72, 3-[2-(4-bromo-phenyl)-ethyl]-8-(2,5-dimethoxy-phenylsulfanyl)-3H-purin-6-ylamine], the “% Inhibition” value is on record as 0%.

The assay is the same for the next values; noted with them: BODIPY-GM 10 nM, Hsp90 30 nM.
Take `COc1cccc(CCn2c(Sc3cc4c(cc3Br)OCO4)nc3c(N)ncnc32)c1` [Example 308, 8-[(6-Bromo-1,3-benzodioxol-5-yl)thio]-9-[2-(3-methoxyphenyl)ethyl]-9H-purin-6-amine]: the IC50 was 180 nM.
For the molecule `COc1ccc(OC)c(Sc2nc3c(N)ncn(CCc4ccccc4F)c-3n2)c1` [Example 30, 8-(2,5-dimethoxy-phenylsulfanyl)-3-[2-(2-fluoro-phenyl)-ethyl]-3H-purin-6-ylamine], the concentration for half-maximal inhibition (IC50) is over 10000 nM.
Regarding `COc1ccc(OC)c(Sc2nc3c(N)ncnc3n2Cc2ccc([N+](=O)[O-])cc2)c1` [Example 84, 8-(2,5-Dimethoxy-phenylsulfanyl)-9-(4-nitro-benzyl)-9H-purin-6-ylamine], the IC50 was over 5000 nM.
In the case of `COc1ccc(OC)c(Sc2nc3c(N)ncnc3n2CCc2cccc(Br)c2)c1` [Example 77, 9-[2-(3-Bromo-phenyl)-ethyl]-8-(2,5-dimethoxy-phenylsulfanyl)-9H-purin-6-ylamine], the concentration for half-maximal inhibition (IC50) was found to be 1900 nM.
Turning to `CC(C)C[C@H](N)C(=O)N1CCCC(CCn2c(Sc3cc4c(cc3Br)OCO4)nc3c(N)ncnc32)C1` (stereo partly drawn) [Example 748, 9-(2-{1-[(2S)-2-Amino-4-methylpentanoyl]piperidin-3-yl}ethyl)-8-[(6-bromo-1,3-benzodioxol-5-yl)thio]-9H-purin-6-amine], the half-maximal inhibitory concentration (IC50) stood at 210 nM. Compared with the last molecule, the IC50 is about 9-fold lower.
For the molecule `CC(C)(C)OC(=O)N1CCC(CCn2c(Sc3cc4c(cc3Br)OCO4)nc3c(N)ncnc32)C(C)(C)C1` (stereo not shown) [Example 464, tert-Butyl 4-(2-{6-amino-8-[(6-bromo-1,3-benzodioxol-5-yl)thio]-9H-purin-9-yl}ethyl)-3,3-dimethylpiperidine-1-carboxylate], the IC50 was 400 nM. This IC50 lies about 1.9-fold higher than the previous one.
In turn, `CC(C)(N)C(=O)N1CCC(CCn2c(Sc3cc4c(cc3Br)OCO4)nc3c(N)ncnc32)CC1` [Example 750, 9-{2-[1-(2-Amino-2-methylpropanoyl)piperidin-4-yl]ethyl}-8-[(6-bromo-1,3-benzodioxol-5-yl)thio]-9H-purin-6-amine] showed an IC50 of 180 nM.
For the molecule `COc1ccc(OC)c(Sc2nc3c(N)ncnc3n2CCC2CCNCC2)c1` [Example 469, 8-[(2,5-Dimethoxyphenyl)thio]-9-(2-piperidin-4-ylethyl)-9 H-purin-6-amine], the IC50 amounted to 8800 nM.
`COc1ccc(OC)c(Sc2nc3c(N)ncnc3n2CCc2ccc3c(c2)OCO3)c1` [Example 167, 9-(2-Benzo[1,3]dioxol-5-yl-ethyl)-8-(2,5-dimethoxy-phenylsulfanyl)-9H-purin-6-ylamine] came in with an IC50 of over 25000 nM.
In the case of `Nc1ncn(CCc2ccc(Cl)cc2F)c2nc(Sc3cc4c(cc3Br)OCO4)nc1-2` [Example 40, 8-(6-bromo-benzo[1,3]dioxol-5-ylsulfanyl)-3-[2-(4-chloro-2-fluoro-phenyl)-ethyl]-3H-purin-6-ylamine], the IC50 is over 10000 nM.
In turn, `COc1ccc(OC)c(Sc2nc3c(N)ncnc3n2CCc2ccccc2F)c1` [Example 29, 8-(2,5-Dimethoxy-phenylsulfanyl)-9-[2-(2-fluoro-phenyl)-ethyl]-9H-purin-6-ylamine] yielded an IC50 of 150 nM.
As for `COc1ccc([N+](=O)[O-])cc1Sc1nc2c(N)ncn(CCC3CCN(C=O)CC3)c-2n1` [Example 537, 4-(2-{6-Amino-8-[(2-methoxy-5-nitrophenyl)thio]-3 H-purin-3-yl}ethyl)piperidine-1-carbaldehyde], the IC50 was over 5000 nM.
In turn, `Cc1ncsc1CCn1c(Sc2cc3c(cc2Br)OCO3)nc2c(N)ncnc21` [Example 330, 8-[(6-Bromo-1,3-benzodioxol-5-yl)thio]-9-[2-(4-methyl-1,3-thiazol-5-yl)ethyl]-9H-purin-6-amine] returned a half-maximal inhibitory concentration (IC50) of 70 nM.
The same measure, in the same setting: the result for `COc1ccc(OC)c(Sc2nc3c(N)ncnc3n2CCc2c(F)c(F)c(F)c(F)c2F)c1` [Example 218, 8-(2,5-Dimethoxy-phenylsulfanyl)-9-(2-pentafluorophenyl-ethyl)-9H-purin-6-ylamine] reads over 3000 nM; that for `COc1ccc(OC)c(Sc2nc3c(N)ncnc3n2CCN2CCN(C(=O)C(C)(C)C)CC2)c1` [Example 444, 8-[(2,5-Dimethoxyphenyl)thio]-9-{2-[4-(2,2-dimethylpropanoyl)piperazin-1-yl]ethyl}-9H-purin-6-amine], 1100 nM; that for `Nc1ncnc2c1nc(Sc1cc3c(cc1I)OCO3)n2CCc1ccccc1` [Example 33, 8-(-6-Iodo-benzo[1,3]dioxol-5-ylsulfanyl)-9-phenethyl-9H-purin-6-ylamine], 17 nM.
`CS(=O)(=O)N1CCCC(CCn2c(Sc3cc4c(cc3Br)OCO4)nc3c(N)ncnc32)C1` (stereo not shown) [Example 369, 8-[(6-Bromo-1,3-benzodioxol-5-yl)thio]-9-{2-[1-(methylsulfonyl)piperidin-3-yl]ethyl}-9H-purin-6-amine] returned an IC50 of 35 nM.
With `Nc1ncnc2c1nc(Sc1cc3c(cc1Br)OCO3)n2CCn1ccnc1` [Example 381, 8-[(6-Bromo-1,3-benzodioxol-5-yl)thio]-9-[2-(1H-imidazol-1-yl)ethyl]-9H-purin-6-amine], the concentration for half-maximal inhibition (IC50) amounted to 390 nM. This IC50 lies about 11-fold higher than the previous one.
`CCOc1ccc(OCC)c(Sc2nc3c(N)ncnc3n2CCc2ccccc2)c1` [Example 189, 8-(2,5-Diethoxy-phenylsulfanyl)-9-phenethyl-9H-purin-6-ylamine] came in with an IC50 of over 8000 nM.
For the molecule `CC(=O)N1CCC(CCn2c(Sc3cc(F)c(F)cc3Br)nc3c(N)ncnc32)CC1` [Example 560, 9-[2-(1-Acetylpiperidin-4-yl)ethyl]-8-[(2-bromo-4,5-difluorophenyl)thio]-9 H-purin-6-amine], the concentration for half-maximal inhibition (IC50) was over 5000 nM.
